The values that follow come from US6395906B1, “Intermediates to pesticidal 1-arylpyrazoles” (Rhone-Poulenc Inc., priority 1995, dated 2002).

SMILES strings stand for the structures.

Holding throughout (type): in vivo
For experiment [1], the system named is black cutworm (Agrotis ipsilon). The experiment can be described thus: Black cutworm (BCW) soil test. Conditions: soil concentration 2.5, 5, 6.75 or 10 ppm; mortality eight days after infestation. The method, then: (§1) For the tick, aphids, souther armyworm, tobacco budworm, house fly, Mexican bean beetle, American cockroach, cat flea, souther corn rootworm, western corn rootworm, black cutworm, and southern root-knot nematode, a solution or suspension was prepared by adding the test compound to a solution of dimethylformamide, acetone, emulsifiers which are alkylaryl polyether alcohols organic sulfonates, and water. The result was a 100 or 500 ppm concentration of the test compound.
(§2) For southern corn rootworm and black cutworm tests, the water-acetone-DMF-emulsifier solution was adjusted for a treatment rate of 2.5, 5, 6.75 or 10 ppm.
(§3) Southern corn rootworm (SCRW), Black cutworm (BCW): Corn seeds were placed in a glass jar and covered with dry sandy loam soil. The 500 ppm test formulation was applied for a soil concentration of 2.5, 5, 6.75 or 10 ppm. As an untreated control, an aliquot of a water-acetone-DMF-emulsifier solution containing no test compound was applied in a similar manner. After incubating covered for 24 hours, the soil was mixed and inoculated with approximately 25 southern corn rootworm eggs. Following an additional 48 hours, two late second to early third instar black cutworms were placed in the jar with a portion of insect diet. Eight days after infestation, mortality was assessed visually for cutworm and by Berlese funnel extraction for rootworm.

For experiment [2], the system named is tobacco budworm (Heliothis virescens). The experiment can be described thus: Tobacco budworm (TBW) treated cotton leaf test. Conditions: cotton leaves, 100 ppm; second instar larvae, five days. How it is done:
as §1
Tobacco budworm (TBW): Cotton leaves were wet to runoff with the 100 ppm test compound formulation. As an untreated control, a water-acetone-DMF-emulsifier solution containing no test compound was also applied wet to runoff to cotton leaves. Ten randomly selected second instar tobacco budworm larvae were introduced into plastic containers in which moist dental wicks and the dry treated leaves had been placed. The cups were closed and held for five days. Larvae which were unable to move the length of the body, even upon stimulation by prodding, were considered dead.

For experiment [3], the system named is house fly (Musca domestica). The experiment can be described thus: House fly (HF) bait test. Conditions: sucrose bait, 100 or 250 ppm; adult flies, mortality after 24 hours. The method, then: as §1
For house fly tests, the water-acetone-DMF-emulsifier solution was adjusted with a 20% by weight aqueous solution of sucrose to provide a final 100 or 250 ppm concentration of the test compound.
House fly (HF): Four to six day old adult house flies were used. The files were immobilized by anesthetizing with carbon dioxide. A bait cup was prepared which contained the 100 or 250 ppm test compound formulation/sucrose solution and one or two absorbent cotton pad(s). As an untreated control, a water-acetone-DMF-emulsifier-sucrose solution containing no test compound was applied in a similar manner. The bait cup was introduced inside the cage prior to admitting 12-25 anesthetized flies. Mortality was assessed after 24 hours.

The test system of experiment [4] is southern corn rootworm (Diabrotica undecimpunctata howardi). The experiment can be described thus: Southern corn rootworm (SCRW) soil test. Conditions: soil concentration 2.5, 5, 6.75 or 10 ppm; mortality eight days after infestation. The method, then:
as §1, §2, §3

In experiment [5] the test system is cotton aphid (Aphis gossypii). The experiment can be described thus: Cotton aphid systemic test (CA-Sys). Particulars: soil drench 10.0 ppm, aphid control rated three and six days after infestation. From the text:
(§4) For cotton aphid systemic tests and black cutwork—systemic tests, the water-acetone-DMF-emulsifier solution was adjusted for a treatment rate of 10.0 ppm soil concentration.
Cotton aphid—systemic test (CA-Sys): Cotton seeds were placed on top of the soil surface in pots containing moist soil. The test compound solution was applied as a drench to the top of the soil and seeds for a treatment rate equivalent to 10.0 ppm soil concentration. As an untreated control, an aliquot of a water-acetone-DMF-emulsifier solution containing no test compound was applied in a similar manner. The soil surface and seeds were covered with moist soil. The pots were held in the greenhouse for the duration of the bioassay. When the cotyledons of the cotton were expanded (approximately 7 days after planting), the cotton was infested with approximately 25 cotton aphids (mixed population). The plant were rated for aphid control three and six days after infestation.

Experiment [6] concerns western corn rootworm (Diabrotica virgifera virgifera). The experiment can be described thus: Western corn rootworm (WCRW) soil test. Particulars: soil concentration 0.15 or 0.5 ppm; neonate larvae, mortality six days after infestation. The method, then:
as §1
For the western corn rootworm test, the water-acetone-DMF-emulsifier solution was adjusted for a treatment rate of 0.15 or 0.5 ppm.
Western corn rootworm (WCRW): The 500 ppm test formulation was applied to dry sandy loam soil contained in a glass jar for a soil concentration of 0.15 or 0.5 ppm. As an untreated control, an aliquot of a water-acetone-DMF-emulsifier solution containing no test compound was applied in a similar manner. After incubating covered for 24 hours, the soil was mixed and four germinated corn seedlings were added to the jar. Ten neonate western corn rootworm larvae were placed in the jar. Six days after infestation, mortality was assessed by Berlese funnel extraction.

The test system of experiment [7] is cotton aphid (Aphis gossypii). The experiment is described as follows: Cotton aphid (CA) foliar spray test. Conditions: cotton plants wet to runoff, 100 or 500 ppm; dead aphids counted after three days. How it is done: as §1
Buckthorn aphid (BA) or cotton aphid (CA): Adult and nymphal stages of buckthorn or cotton aphid were reared on potted dwarf nasturtium or cotton plants, respectively. Plants infested with 100-150 aphids were wet to runoff with the 100 or 500 ppm test compound formulation. As an untreated control, a water-acetone-DMF-emulsifier solution containing no test compound was also applied to runoff to infested plants. The treated plants were stored for one day for buckthorn aphid and three days for cotton aphid, after which the dead aphids were counted.

In experiment [8] the test system is Mexican bean beetle (Epilachna varivestis). The experiment can be described thus: Mexican bean beetle (MBB) treated bean leaf test. Conditions: bean leaves, 100 or 500 ppm; second instar larvae, five days. The method, then: as §1
Southern armyworm (SAW), Mexican bean beetle (MBB): Bean leaves were wet to runoff with the 100 or 500 ppm test compound formulation. As an untreated control, a water-acetone-DMF-emulsifier solution containing no test compound was also applied wet to runoff to bean leaves. Five or six randomly selected second instar southern armyworn larvae or Mexican bean bettle larvae were introduced into each plastic container with the dry treated leaves. The container was closed and held for five days. Larvae which were unable to move the length of the body, even upon stimulation by prodding, were considered dead.

In experiment [9] the test system is black cutworm (Agrotis ipsilon). The experiment is described as follows: Black cutworm systemic test (BCW-Sys). Conditions: soil drench 10.0 ppm, corn seedling clipped ten days after treatment; mortality 4 days after infestation.
Description: as §4
Black cutworm—systemic test (BCW-Sys): Corn seeds were placed on top of the soil surface in pots containing moist soil. The test compound solution was applied as a drench to the top of the soil and seeds for a treatment rate equivalent to 10.0 ppm soil concentration. As an untreated control, an aliquot of water-acetone-DMF-emulsifier solution containing no test compound was applied in a similar manner. The soil surface and seeds were covered with moist soil. The pots were held in the greenhouse for the duration of the bioassay. Ten days after treatment, the corn seedling was clipped and placed in a plastic cup with 2 late second to early third instar black cutworm larvae. Mortality was assessed visually 4 days after infestation.

In experiment [10] the test system is greenbug aphid (Schizaphis graminum). The experiment is described as follows: Greenbug aphid systemic test (GA-Sys). Particulars: soil drench 10 or 25 ppm, sorghum; aphid control rated one and three days after infestation. From the text:
For the greenbug aphid systemic test, the water-acetone-DMF-emulsifier solution was adjusted for a treatment rate of 10 or 25 ppm soil concentration.
Greenburg aphid—systemic test (GA-Sys): Sorghum seeds were placed on top of the soil surface in pots containing moist soil. The test compound solution was applied as a drench to the top of the soil and seeds for a treatment rate equivalent to 10 or 25 ppm soil concentration. As an untreated control, an aliquot of a water-acetone-DMF-emulsifier solution containing no test compound was applied in a similar manner. The soil surface and seeds were covered with moist soil. The pots were held in the greenhouse for the duration of the bioassay. When the sorghum seeds germinated, greenbug aphids were sprinkled evenly over the sorghum pots to about 50 aphids per pot. The plants were rated for aphid control one and three days after infestation.

Experiment [11] relates to cat flea (Ctenocephalides felis). The experiment can be described thus: Cat flea (CF) treated filter paper contact test. Conditions: 500 ppm, adult fleas, contact mortality 1 day after infestation. The method, then: as §1
Cat flea (CF), dog tick (DT): Filter papers were treated with an aliquot of the 500 ppm test formulation. As an untreated control, an aliquot of a water-acetone-DMF-emulsifier solution containing no test compound was applied in a similar manner. When dry, 2 treated filters were placed in a vial for the flea and another 2 filters in a vial for the tick. Five adult fleas were added to one vial and 5 adult ticks to the second vial. Contact mortality was assessed 1 day after infestation for the flea and 14 days after infestation for the tick.

Experiment [12] deals with American cockroach (Periplaneta americana). The experiment can be described thus: American cockroach (ACR) treated food pellet test. Particulars: food pellets with 500 ppm formulation; nymphs, contact and feeding mortality 1 and 5 days after infestation. The method, then: as §1
American cockroach (ACR): Cat food or dog food pellets were added to jars containing 1-2 mls of the 500 ppm test formulation. As an untreated control, an aliquot of a water-acetone-DMF-emulsifier solution containing no test compound was applied in a similar manner. After 48 hours, roach nymphs were added to the jar. Contact and feeding mortally was assessed 1 and 5 days after infestation.

For `N#Cc1nn(-c2c(Cl)cc(C(F)(F)F)cc2Cl)c(C=NN)c1SC(F)(F)F` [Compound 3, 5-{(N-amino)iminomethylidenyl}-3-cyano-1-(2,6-dichloro-4-trifluoromethylphenyl)-4-trifluoromethylthiopyrazole], the BCW entry in experiment [1] was “+ (active against 1 or more insects described above up to 100% mortality. This activity is indicated by a “+”)”. For the same compound, the TBW entry in experiment [2] is on record as “+ (active against 1 or more insects described above up to 100% mortality. This activity is indicated by a “+”)”. In experiment [3], the HF entry is reported as “+ (active against 1 or more insects described above up to 100% mortality. This activity is indicated by a “+”)”. The SCRW entry in experiment [4] was “+ (active against 1 or more insects described above up to 100% mortality. This activity is indicated by a “+”)”.
Consider `CON=Cc1c(SC(F)(F)F)c(C#N)nn1-c1c(Cl)cc(C(F)(F)F)cc1Cl` [Compound 5, 3-Cyano-1-(2,6-dichloro-4-trifluoromethylphenyl)-5-{(N-methoxy)iminomethylidenyl}-4-trifluoromethylthiopyrazole], for which the CA-Sys result in experiment [5] is listed as “+ (active against 1 or more insects described above up to 100% mortality. This activity is indicated by a “+”)”. Further, the WCRW entry in [6] is on record as “+ (active against 1 or more insects described above up to 100% mortality. This activity is indicated by a “+”)”. In experiment [7], the CA entry is given as “+ (active against 1 or more insects described above up to 100% mortality. This activity is indicated by a “+”)”. Moreover, the HF entry in experiment [3] is reported as “+ (active against 1 or more insects described above up to 100% mortality. This activity is indicated by a “+”)”. Also, the SCRW result in experiment [4] is listed as “+ (active against 1 or more insects described above up to 100% mortality. This activity is indicated by a “+”)”.
For the compound `CC(=O)c1c([S+]([O-])C(F)(F)F)c(C#N)nn1-c1c(Cl)cc(C(F)(F)F)cc1Cl` (stereo not shown) [Compound 10, 5-Acetyl-3-cyano-1-(2,6-dichloro-4-trifluoromethylphenyl)-4-trifluoromethylsulfinylpyrazole], the BCW result in [1] is given as “+ (active against 1 or more insects described above up to 100% mortality. This activity is indicated by a “+”)”. Besides, in [8], the MBB entry is given as “+ (active against 1 or more insects described above up to 100% mortality. This activity is indicated by a “+”)”. Also, the WCRW entry in experiment [6] is “+ (active against 1 or more insects described above up to 100% mortality. This activity is indicated by a “+”)”. The BCW-Sys entry in experiment [9] is given as “+ (active against 1 or more insects described above up to 100% mortality. This activity is indicated by a “+”)”. Besides, in experiment [10], the GA-Sys result is recorded as “+ (active against 1 or more insects described above up to 100% mortality. This activity is indicated by a “+”)”. Also, the TBW result in experiment [2] is listed as “+ (active against 1 or more insects described above up to 100% mortality. This activity is indicated by a “+”)”.
Regarding `CCOC(OCC)c1c(S(=O)(=O)C(F)(F)F)c(C#N)nn1-c1c(Cl)cc(C(F)(F)F)cc1Cl` [Compound 19, 3-Cyano-1-(2,6-dichloro-4-trifluoromethylphenyl)-5-diethoxymethyl-4-trifluoromethylsulfonylpyrazole], the CF result in experiment [11] is given as “+ (active against 1 or more insects described above up to 100% mortality. This activity is indicated by a “+”)”. Further, the ACR result in experiment [12] was “+ (active against 1 or more insects described above up to 100% mortality. This activity is indicated by a “+”)”. In addition, the TBW result in experiment [2] is “+ (active against 1 or more insects described above up to 100% mortality. This activity is indicated by a “+”)”.
Turning to `CCOC(OCC)c1c([S+]([O-])C(F)(F)F)c(C#N)nn1-c1c(Cl)cc(C(F)(F)F)cc1Cl` (stereo not shown) [Compound 20, 3-Cyano-1-(2,6-dichloro-4-trifluoromethylphenyl)-5-diethoxymethyl-4-trifluoromethylsulfinylpyrazole], the CF result in experiment [11] is listed as “+ (active against 1 or more insects described above up to 100% mortality. This activity is indicated by a “+”)”. Moreover, the CA-Sys entry in experiment [5] is given as “+ (active against 1 or more insects described above up to 100% mortality. This activity is indicated by a “+”)”. Moreover, in experiment [12], the ACR result is recorded as “+ (active against 1 or more insects described above up to 100% mortality. This activity is indicated by a “+”)”. Also, the CA entry in [7] is reported as “+ (active against 1 or more insects described above up to 100% mortality. This activity is indicated by a “+”)”.
